Source: US20120165408A1, “ORAL COMPOSITION FOR ALLEVIATING ROUGH SKIN” (Shiseido Company, Ltd., priority 2009, published 2012)

Legend:
[1] = test system: skin barrier function in SDS-treated mice; assay: Rough skin experiment, long term (28-day) oral administration: transepidermal water loss after SDS treatment; type: in vivo, HR-1 hairless mice; details: 10 mM in drinking water, two hours after the second SDS treatment (28th day); for Δ(delta) TEWL value: negative control 2.4
Protocol: The administration of the amino acid, the rough skin experiments and the quantification of the transepidermal water loss were conducted similarly to Example 1 using the HR-1 hairless mice described above. The amino acid employed was 10 mM L- or D-glutamic acid or L- or D-glutamine. The negative control employed was drinking water containing no amino acid. The SDS treatment was conducted on the 27th and 28th days after starting the administration of the amino acid. In this Example, the SDS treatments on the 27th and 28th days after starting the administration of the amino acid described above are referred to as the first and the second SDS treatments, respectively. The quantification of the transepidermal water loss was conducted two hours after the second SDS treatment.
The error bars for relevant experimental conditions are the standard deviations of the measured values of the results of the experiments repeated five times under identical conditions. The asterisk (*) indicates p<5% by Dunnett's test.

[2] = test system: skin barrier function in SDS-treated mice; assay: Rough skin experiment, short term (11-day) oral administration: transepidermal water loss after SDS treatment; type: in vivo, HR-1 hairless mice; details: for Δ(delta) TEWL value: difference from the negative control (Dunnett's test, p<5%): 2 hours after the second SDS treatment
Protocol: HR-1 hairless mice (males, seven-week old, Hoshino Laboratory Animals, Inc.) were subjected to the experiment. Each experimental group included seven to eight mice.
In order to examine the effect of the amino acid on the rough skin, 1 mM or 10 mM D-glutamic acid was given with drinking water. The negative control employed was drinking water containing no D-glutamic acid.
An unwoven fabric soaked with a 10% SDS solution was brought into contact for five minutes with one side of the back of a mouse under anesthesia (hereinafter referred to as “SDS treatment”) on the 10th and 11th days after starting the administration of D-glutamic acid. The SDS treatment may be conducted two to five times repetitively until the rough skin becomes evident. In this Example, the SDS treatments on the 10th and 11th days after starting the administration of D-glutamic acid are referred to as the first and the second SDS treatments, respectively. Also in the following transepidermal water loss measurements, an area treated with SDS is referred to as an “SDS treated area,” while an area of the opposite side which was not treated with SDS is referred to as an “SDS non-treated area.”
In order to quantify the rough skin condition, the transepidermal water loss was measured immediately before the first SDS treatment (before SDS treatment) and two hours after the first and the second SDS treatments using a transepidermal water loss meter (Tewameter TM-300, manufactured by Courage+Khazaka electronic GmbH) in accordance with the instruction provided by the manufacturer. Here, the value obtained by subtracting the quantity of the transepidermal water loss of the SDS non-treated area from the quantity of the transepidermal water loss of the SDS treated area was regarded as a “Δ(delta) TEWL value.”
The error bars for relevant experimental conditions are the standard deviations of the measured values of the results of the experiments seven to eight times under identical conditions. The asterisk (*) indicates p<5% by Dunnett's test.

Compound | Δ(delta) TEWL value: difference from the negative control (Dunnett's test, p<5%) [1] | Δ(delta) TEWL value [1] | Δ(delta) TEWL value: difference from the negative control (Dunnett's test, p<5%) ([2]; 1 mM in drinking water) | Δ(delta) TEWL value ([2]; 1 mM in drinking water, immediately before the first SDS treatment (10th day), negative control 0.7) | Δ(delta) TEWL value ([2]; 1 mM in drinking water, two hours after the first SDS treatment (10th day), negative control 2.2) | Δ(delta) TEWL value ([2]; 1 mM in drinking water, two hours after the second SDS treatment (11th day), negative control 7.0) | Δ(delta) TEWL value: difference from the negative control (Dunnett's test, p<5%) ([2]; 10 mM in drinking water) | Δ(delta) TEWL value ([2]; 10 mM in drinking water, immediately before the first SDS treatment (10th day), negative control 0.7) | Δ(delta) TEWL value ([2]; 10 mM in drinking water, two hours after the first SDS treatment (10th day), negative control 2.2) | Δ(delta) TEWL value ([2]; 10 mM in drinking water, two hours after the second SDS treatment (11th day), negative control 7.0)
N[C@@H](CCC(=O)O)C(=O)O [L-glutamic acid] | no significant difference | 1.1 g/m^2/h | – | – | – | – | – | – | – | –
N[C@H](CCC(=O)O)C(=O)O [D-glutamic acid] | significant difference | −0.9 g/m^2/h | significant difference | 0.4 g/m^2/h | 1.5 g/m^2/h | 3.2 g/m^2/h | significant difference | 0.1 g/m^2/h | 1.2 g/m^2/h | 3.8 g/m^2/h
NC(=O)CC[C@@H](N)C(=O)O [D-glutamine] | no significant difference | 3.3 g/m^2/h | – | – | – | – | – | – | – | –
NC(=O)CC[C@H](N)C(=O)O [L-glutamine] | no significant difference | 2.3 g/m^2/h | – | – | – | – | – | – | – | –
